Experimental data as given in ChEMBL document CHEMBL1150785 (Antimicrob Agents Chemother, 2007).

System: Mycobacterium tuberculosis
Experiment: Effect on mutation frequency of Mycobacterium tuberculosis H37Ra assessed as mutation prevention concentration
Format: functional

Q: With `NNC(=O)c1ccncc1` [ISONIAZID] as the compound, how does the Activity read?
A: 50 mg/L
